Reference: US20240390512A1, “METHODS OF TREATING CHEMOTHERAPY-RESISTANT CANCER WITH AN ANTIBODY-DRUG CONJUGATE” (DAIICHI SANKYO COMPANY, LIMITED, priority 2021, published 2024)
Where two headings read alike, the source gives them in different places.

Key:
[1] = test system: Human ovarian cancer cell line OV-90; assay: Antitumor study (2), combination with carboplatin, OV-90 xenograft; settings: Day 21; ADC (1) 1 mg/kg iv Day 0, carboplatin 50 mg/kg iv Day 0
Source text: Human ovarian cancer cell line OV-90, which was purchased from ATCC, was suspended into Matrigel (Corning Inc.), subcutaneously transplanted at 2.5×10^6 cells into the right side of female nude mice, and the mice were randomly grouped 14 days after the transplantation (Day 0). […] Single administration groups of each drug, a combined administration group, and a solvent administration group as a control group were set up.

[2] = test system: Human ovarian cancer cell line NIH:OVCAR-3; assay: Antitumor study (1), combination with carboplatin, NIH:OVCAR-3 xenograft; settings: Day 21; ADC (1) 0.3 mg/kg iv Day 0, carboplatin 50 mg/kg iv Day 0
Procedure: Human ovarian cancer cell line NIH:OVCAR-3, which was purchased from ATCC, was suspended into Matrigel (Corning Inc.), subcutaneously transplanted at 1.0×10^7 cells into the right side of female nude mice, and the mice were randomly grouped 24 days after the transplantation (Day 0). The antibody-drug conjugate (1) (formula 4) (DAR: 7.9) was intravenously administered to the tail vein at a dose of 0.3 mg/kg on Day 0. […] Single administration groups of each drug, a combined administration group, and a solvent administration group as a control group were set up.

[3] = test system: Human ovarian cancer cell line OV-90; assay: Antitumor study (4), combination with gemcitabine, OV-90 xenograft; type: in vivo, mouse; settings: Day 21; ADC (1) 3 mg/kg iv Day 0, gemcitabine 15 mg/kg iv Day 0, 7, 14
Procedure: (§1) Measurement and calculation formula: In the study, the major axis and minor axis of tumors were measured up to 3 times a week with an electronic digital caliper (CD15-CX, Mitutoyo Corp.), and the tumor volume (mm^3) was calculated. The calculation formula is as shown below.

[4] = test system: Human ovarian cancer cell line OV-90; type: in vivo, mouse; settings: Day 15; ADC (1) 10 mg/kg iv Day 0, carboplatin 50 mg/kg iv Day 0, paclitaxel 20 mg/kg iv Day 1
Procedure: Measurement and calculation formula: In the study, the major axis and minor axis of tumors were measured twice a week with an electronic digital caliper (CD15-CX, Mitutoyo Corp.), and the tumor volume (mm^3) was calculated. The calculation formula is as shown below.

[5] = test system: Human ovarian cancer cell line NIH:OVCAR-3; assay: In vivo antitumor effect after long-term treatment of carboplatin and paclitaxel, NIH:OVCAR-3 xenograft; parameters: species or system mouse; settings: carboplatin 50 mg/kg and paclitaxel 30 mg/kg iv
Procedure: as §1, with “below. Tumor volume (mm^3)=½×Major axis (mm)×[Minor axis (mm)]^2.” for “below.”
Carboplatin was diluted with physiological saline, and intravenously administered to the tail vein in a fluid volume of 10 mL/kg. Paclitaxel was dissolved with cremophor and ethanol (1:1), diluted with physiological saline, and then intravenously administered to the tail vein in a fluid volume of 10 mL/kg. The antibody-drug conjugate (formula 4) was diluted with ABS buffer (10 mM acetate buffer [pH 5.5], 5% sorbitol), and intravenously administered to the tail vein in a fluid volume of 10 mL/kg.
For clarity, the antibody comprised in the antibody-drug conjugate (1) administered is referred as “H01L02” in the present invention.

Q: Which TGI [1] does the source give for `N.N.O=C([O-])C1(C(=O)[O-])CCC1.[Pt+2]` [carboplatin] here?
A: 23%

Q: And the “tumor growth inhibition (TGI)” value [2]?
A: 47%

Q: With `Nc1ccn([C@@H]2O[C@H](CO)[C@@H](O)C2(F)F)c(=O)n1` [gemcitabine] as the compound, how does the TGI [3] read?
A: 23%

Q: What does the source list for carboplatin and paclitaxel?
A: TGI [4]: 65%; tumor response to the first dosing ([5]; 12 mice): the tumor regressed in all cases; time to tumor regrowth after the first dosing ([5]; regrowth in all most cases): ≤ 6 weeks
